Columns and labels:
A549 cells = assay: Inhibitory effect on TGF-β1-induced EMT (E-Cad and N-Cad expression, Western blot); type: cell-based; settings: 5 ng/mL TGF-β1, 48 hours, compared to Vhcl (TGF-β1), FIG. 5
Procedure: (§1) In order to confirm an effect of the compound according to the present invention on preventing or treating chronic obstructive pulmonary disease, an expression of an epithelial marker protein (E-Cad) and a mesenchymal marker protein (N-Cad) was analyzed. A549 cells were cultured in RPMI-1640 medium containing 10% fetal bovine serum (FBS) and 1% penicillin-streptomycin (P/S). The 1.5×10^5 cells were plated in a 6-well plate and incubated overnight. The cells were cultured with 5 ng/mL of recombinant human transforming growth factor beta 1 (TGF-β1) to induce an epithelial-to-mesenchymal transition (EMT). TGF-β1 was diluted with RPMI-1640 (1% FBS, 1% P/S) and incubated with the cells for 48 hours. The 500 µL of culture medium was loaded on a centrifugal filter (Amicon® Ultra-0.5 mL) and centrifuged at 14,000×g for 10 minutes. The enriched culture medium was boiled with 15 µL of 4X sample buffer at 100° C. for five minutes and analyzed by using the Western blot. The cells were lysed by using an RIPA buffer containing a protease inhibitor cocktail and a phosphatase inhibitor cocktail. A lysate was incubated on ice for three minutes and centrifuged at 13,000×g, 4° C. for 20 minutes. A supernatant was quantified by using a BCA protein assay kit and analyzed by the Western blot. The prepared sample was loaded on NuPAGE Novex 4-12% Bis-Tris gel and decomposed at 120 V Proteins were transferred to a nitrocellulose membrane by using an iBlot machine. The membrane was blocked by using EzBlock Chemi according to the manufacturer’s instructions. Antibodies such as E-cadherin (E-Cad), N-cadherin (N-cad), Fibronectin-EDA (FN-EDA), etc., were used. After reaction with a horseradish peroxidase (HRP)-conjugated secondary antibody, immunoreactive proteins were visualized by using Amersham® ECL select® Western blot detection reagent, and detected by ChemiDoc® MP imaging system. The intensity of the band was quantified with ImageJ software and normalized to β-actin.

FN-EDA in A549 cells = assay: FN-EDA protein reduction in TGF-β1-treated cells (Western blot); type: cell-based; settings: 5 ng/mL TGF-β1, 48 hours, compared to Vhcl (TGF-β1), FIG. 6
Procedure: as §1
In order to confirm an effect of the compound according to the present invention on preventing or treating chronic obstructive pulmonary disease, an expression of FN-EDA, a key extracellular matrix (ECM) protein, was analyzed. The analysis was performed by the same method as described in Example 2 above.

[1] = tested on: IL-6, IFN-γ, MCP-1, TNF-α; assay: Expression of inflammatory cytokines in lung tissue by real-time PCR, smoking + Poly I:C COPD model; type: in vivo, C57BL/6 mouse; settings: 30 mg/kg P.O. Q.D., compared with SM+no drug, FIG. 4
From the text: (§2) A C57BL/6 mouse (female, seven weeks old) was placed in a sealed smoking box and exposed to cigarette smoke for a certain period of time to induce COPD disease. Specifically, the mouse was put into the smoking box, after which a cigarette was lit and its filter was connected to a tube under a negative pressure, so that cigarette smoke could be continuously produced. Then, the smoking box was blocked, so that the mouse was forced to inhale the cigarette smoke while breathing in. The mouse was allowed to smoke for a total of four weeks. The mouse was exposed to one, two and four cigarettes once on the first, second and third days of the first week, respectively, and again exposed to four cigarettes twice and three times on the fourth and fifth days, respectively. After that, the mouse was exposed to four cigarettes three times a day for the remaining three weeks. Poly I:C (polyinosinic:polycytidylic acid) was administered into a nasal cavity of the anesthetized mouse twice a week in the third and fourth weeks during induction of smoking, so that a model of smoking + Poly I:C COPD (chronic obstructive pulmonary disease) was induced.
(§3) In order to confirm a drug administration effect of the compound according to the present invention, mice with induced COPD were divided into each group of six mice, and each of the groups was is classified as shown in a following table 1 according to an administered substance [vehicle (Veh), compound 374 (SM+1), or compound 458 (SM+2)], a route of administration [oral administration (P.O.)], and an administration interval [daily (Q.D.)].
In order to confirm an effect of the compound according to the present invention on preventing or treating chronic obstructive pulmonary disease, an expression of inflammatory cytokines in lung tissues was analyzed. Lungs were removed from mice of each group, after which RNA was isolated from the lung tissues. For each RNA, cDNA synthesis was performed by using a reverse transcriptase, after which an expression of inflammatory cytokine markers such as IL-6, IFN-y, MCP-1, and TNF-α was analyzed through real-time PCR, so as to compare a degree of induced inflammation among the groups. In this case, a sequence of a primer used in the experiment is the same as shown in a following table 2. (* P < 0.05, ** P < 0.01, and *** P < 0.001)

[2] = tested on: mouse with induced COPD (smoking + Poly I:C); assay: Evaluation of immune cell infiltration in H&E-stained lung tissue sections, smoking + Poly I:C COPD model; type: in vivo, C57BL/6 mouse; settings: 30 mg/kg P.O. Q.D.; compared to smoking + Poly I:C (SM+no drug); FIG. 2
From the text: as §2, with “Poly I:C (polyinosinic:polycytidylic acid) was administered into a nasal cavity of the anesthetized mouse twice a week in the third and fourth weeks during induction of smoking, so that a model of smoking + Poly I:C COPD (chronic obstructive pulmonary disease) was induced.” left out
In order to confirm an effect of the compound according to the present invention on preventing or treating chronic obstructive pulmonary disease, a degree of immune cell infiltration was evaluated. […] According to a reference image of FIG. 1, a degree of cellular infiltration was determined as a score of 0 to 3, and the score was measured by observing slides for each group [FIG. 1: 0-none, 1-mild, 2-moderate, and 3-severe].

[3] = tested on: mouse with induced COPD (smoking + Poly I:C); assay: Analysis of bronchoalveolar lavage fluid (BAL fluid) cell counts, smoking + Poly I:C COPD model; type: in vivo, C57BL/6 mouse; settings: 30 mg/kg P.O. Q.D.; compared with SM+no drug; FIG. 3
From the text: as §2, §3
In order to confirm an effect of the compound according to the present invention on preventing or treating chronic obstructive pulmonary disease, bronchoalveolar lavage fluid (BAL fluid) was analyzed. The 2 mL of the BAL fluid was separated from the mice of each group and centrifuged. After that, the resulting fluid was suspended in a phosphate buffer solution (PBS), after which the number of total cells was counted, and 2 × 10^5 cells were attached to a slide through a cytospin. After staining with a diff-quick stain kit, the resulting cells were classified into macrophage, neutrophil, etc. based on the properties of the stained cells, so as to count a total of 300 cells, after which a rate of respective cells was calculated with regard to the number of total cells to make a comparison among the groups.

O=C(NO)c1ccc(CN(C(=O)N2CCOCC2)c2ccc(F)c(Cl)c2)cc1 [Compound 458, N-(3-chloro-4-fluorophenyl)-N-(4-(hydroxycarbamoyl)benzyl)morpholine-4-carboxamide]
expression of E-Cad (epithelial marker protein) (A549 cells): remarkable increase
expression of N-Cad (mesenchymal marker protein) (A549 cells): remarkable decrease
expression of key ECM protein FN-EDA (FN-EDA in A549 cells): remarkable decrease

O=C(NO)c1ccc(CN(C(=O)N2CCOCC2)c2ccc(F)c(Cl)c2)cc1 [SM+2, N-(3-chloro-4-fluorophenyl)-N-(4-(hydroxycarbamoyl)benzyl)morpholine-4-carboxamide]
expression of IFN-y in lung tissue [1]: decreased
expression of IL-6 in lung tissue [1]: decreased
expression of MCP-1 in lung tissue [1]: decreased
expression of TNF-α in lung tissue [1]: decreased
cellular infiltration score (0 to 3) in lung tissue [2]: decrease
number of macrophages in BAL fluid [3]: decreased
number of neutrophils in BAL fluid [3]: decreased
number of total cells in BAL fluid [3]: decreased

O=C(NO)c1ccc(CN(C(=O)N2CCOCC2)c2ccc(F)cc2F)cc1 [Compound 413, N-(2,4-difluorophenyl)-N-(4-(hydroxycarbamoyl)benzyl)morpholine-4-carboxamide]
expression of E-Cad (epithelial marker protein) (A549 cells): remarkable increase
expression of N-Cad (mesenchymal marker protein) (A549 cells): remarkable decrease
expression of key ECM protein FN-EDA (FN-EDA in A549 cells): remarkable decrease

O=C(NO)c1ccc(CN(C(=O)N2CCOCC2)c2cccc(F)c2)cc1 [Compound 530]
expression of E-Cad (epithelial marker protein) (A549 cells): remarkable increase
expression of N-Cad (mesenchymal marker protein) (A549 cells): remarkable decrease
expression of key ECM protein FN-EDA (FN-EDA in A549 cells): remarkable decrease

O=C(NO)c1ccc(CN(C(=O)N2CCOCC2)c2cccc(C(F)(F)F)c2)cc1 [Compound 374, N-(4-(hydroxycarbamoyl)benzyl)-N-(3-(trifluoromethyl)phenyl)morpholine-4-carboxamide]
expression of E-Cad (epithelial marker protein) (A549 cells): remarkable increase
expression of N-Cad (mesenchymal marker protein) (A549 cells): remarkable decrease
expression of key ECM protein FN-EDA (FN-EDA in A549 cells): remarkable decrease

COc1cccc(N(Cc2ccc(C(=O)NO)cc2)C(=O)N2CCOCC2)c1 [Compound 484, N-(4-(Hydroxycarbamoyl)Benzyl)-N-(3-Methoxyphenyl)Morpholine-4-Carboxamide]
expression of E-Cad (epithelial marker protein) (A549 cells): remarkable increase
expression of N-Cad (mesenchymal marker protein) (A549 cells): remarkable decrease
expression of key ECM protein FN-EDA (FN-EDA in A549 cells): remarkable decrease

O=C(NO)c1ccc(CN(C(=O)N2CCCOCC2)c2cccc(F)c2)cc1 [Compound 652]
expression of E-Cad (epithelial marker protein) (A549 cells): remarkable increase
expression of N-Cad (mesenchymal marker protein) (A549 cells): remarkable decrease
expression of key ECM protein FN-EDA (FN-EDA in A549 cells): remarkable decrease

O=C(NO)c1ccc(CN(C(=O)N2CCOCC2)c2cccc(C(F)(F)F)c2)cc1 [SM+1, N-(4-(hydroxycarbamoyl)benzyl)-N-(3-(trifluoromethyl)phenyl)morpholine-4-carboxamide]
expression of IFN-y in lung tissue [1]: decreased
expression of IL-6 in lung tissue [1]: decreased
expression of MCP-1 in lung tissue [1]: decreased
expression of TNF-α in lung tissue [1]: decreased
cellular infiltration score (0 to 3) in lung tissue [2]: decrease
number of macrophages in BAL fluid [3]: decreased
number of neutrophils in BAL fluid [3]: decreased
number of total cells in BAL fluid [3]: decreased

Source: patent US20230248735A1, “COMPOSITIONS FOR PREVENTING OR TREATING CHRONIC OBSTRUCTIVE PULMONARY DISEASES (COPD)” (Chong Kun Dang Pharmaceutical Corp., priority 2019, published 2023)
